Test results taken from patent publication US11357230B2, “Herbicidal amides” (FMC Corporation, priority 2017, dated 2022).

Columns and labels:
Format in all cases: in vivo
[1] = tested on: foxtail, green (green foxtail, Setaria viridis); test: Test A postemergence, green foxtail; conditions: approximately 10 d
Description: (§1) Seeds of plant species selected from barnyardgrass (Echinochloa crus-galli), kochia (Kochia scoparia), ragweed (common ragweed, Ambrosia elatior), ryegrass, Italian (Italian ryegrass, Lolium multiflorum), foxtail, green (green foxtail, Setaria viridis), and pigweed (Amaranthus retroflexus) were planted into a blend of loam soil and sand and treated preemergence with a directed soil spray using test chemicals formulated in a non-phytotoxic solvent mixture which included a surfactant. At the same time, plants selected from these weed species and also wheat (Triticum aestivum), corn (Zea mays), blackgrass (Alopecurus myosuroides), and galium (catchweed bedstraw, Galium aparine) were planted in pots containing the same blend of loam soil and sand and treated with postemergence applications of test chemicals formulated in the same manner. Plants ranged in height from 2 to 10 cm and were in the one- to two-leaf stage for the postemergence treatment. Treated plants and untreated controls were maintained in a greenhouse for approximately 10 d, after which time all treated plants were compared to untreated controls and visually evaluated for injury. Plant response ratings, summarized in Table A, are based on a 0 to 100 scale where 0 is no effect and 100 is complete control. A dash (-) response means no test result.

[2] = tested on: ragweed (common ragweed, Ambrosia elatior); test: Test A postemergence, ragweed; conditions: approximately 10 d
Description: as §1

[3] = tested on: rice (Oryza sativa); test: Test B flooded paddy test, rice; conditions: 250 g ai/ha, Flood (paddy water), 13 to 15 d
Procedure: (§2) Plant species in the flooded paddy test selected from rice (Oryza sativa), sedge, umbrella (small-flower umbrella sedge, Cyperus difformis), ducksalad (Heteranthera limosa), and barnyardgrass (Echinochloa crus-galli) were grown to the 2-leaf stage for testing. At time of treatment, test pots were flooded to 3 cm above the soil surface, treated by application of test compounds directly to the paddy water, and then maintained at that water depth for the duration of the test. Treated plants and controls were maintained in a greenhouse for 13 to 15 d, after which time all species were compared to controls and visually evaluated. Plant response ratings, summarized in Table B, are based on a scale of 0 to 100 where 0 is no effect and 100 is complete control. A dash (-) response means no test result.

[4] = tested on: kochia (Kochia scoparia); test: Test A postemergence, kochia; conditions: approximately 10 d
Description: as §1

[5] = tested on: galium (catchweed bedstraw, Galium aparine); test: Test A postemergence, galium; conditions: approximately 10 d
Description: as §1

[6] = tested on: pigweed (Amaranthus retroflexus); test: Test A postemergence, pigweed; conditions: approximately 10 d
Description: as §1

[7] = tested on: blackgrass (Alopecurus myosuroides); test: Test A postemergence, blackgrass; conditions: approximately 10 d
Description: as §1

[8] = tested on: kochia (Kochia scoparia); test: Test A preemergence, kochia; conditions: approximately 10 d
Description: as §1

[9] = tested on: sedge, umbrella (small-flower umbrella sedge, Cyperus difformis); test: Test B flooded paddy test, umbrella sedge; conditions: 250 g ai/ha, Flood (paddy water), 13 to 15 d
Procedure: as §2

[10] = tested on: barnyardgrass (Echinochloa crus-galli); test: Test A preemergence, barnyardgrass; conditions: approximately 10 d
Description: as §1

[11] = tested on: barnyardgrass (Echinochloa crus-galli); test: Test B flooded paddy test, barnyardgrass; conditions: 250 g ai/ha, Flood (paddy water), 13 to 15 d
Procedure: as §2

[12] = tested on: wheat (Triticum aestivum); test: Test A postemergence, wheat; conditions: approximately 10 d
Description: as §1

[13] = tested on: foxtail, green (green foxtail, Setaria viridis); test: Test A preemergence, green foxtail; conditions: approximately 10 d
Description: as §1

[14] = tested on: corn (Zea mays); test: Test A postemergence, corn; conditions: approximately 10 d
Description: as §1

[15] = tested on: ryegrass, Italian (Italian ryegrass, Lolium multiflorum); test: Test A preemergence, Italian ryegrass; conditions: approximately 10 d
Description: as §1

[16] = tested on: ducksalad (Heteranthera limosa); test: Test B flooded paddy test, ducksalad; conditions: 250 g ai/ha, Flood (paddy water), 13 to 15 d
Procedure: as §2

[17] = tested on: pigweed (Amaranthus retroflexus); test: Test A preemergence, pigweed; conditions: approximately 10 d
Description: as §1

[18] = tested on: ryegrass, Italian (Italian ryegrass, Lolium multiflorum); test: Test A postemergence, Italian ryegrass; conditions: approximately 10 d
Description: as §1

[19] = tested on: barnyardgrass (Echinochloa crus-galli); test: Test A postemergence, barnyardgrass; conditions: approximately 10 d
Description: as §1

[20] = tested on: ragweed (common ragweed, Ambrosia elatior); test: Test A preemergence, ragweed; conditions: approximately 10 d
Description: as §1

## CN1C[C@H](c2ccc(C(F)(F)F)cc2)[C@@H](C(=O)Nc2cccc(F)c2F)C1=NN [Compound 2, (3R,4S)—N-(2,3-difluorophenyl)-2-hydrazinylidene-1-methyl-4-[4-(trifluoromethyl)phenyl]-3-pyrrolidinecarboxamide]
[1]; 31 g ai/ha
  Plant response rating (0 to 100 scale, 0 is no effect, 100 is complete control): 30
[1]; 125 g ai/ha
  Plant response rating (0 to 100 scale, 0 is no effect, 100 is complete control): 70
[2]; 31 g ai/ha
  Plant response rating (0 to 100 scale, 0 is no effect, 100 is complete control): 0
[2]; 125 g ai/ha
  Plant response rating (0 to 100 scale, 0 is no effect, 100 is complete control): 0
[3]
  Plant response rating (scale of 0 to 100, 0 is no effect, 100 is complete control): 0
[4]; 31 g ai/ha
  Plant response rating (0 to 100 scale, 0 is no effect, 100 is complete control): 0
[4]; 125 g ai/ha
  Plant response rating (0 to 100 scale, 0 is no effect, 100 is complete control): 0
[5]; 31 g ai/ha
  Plant response rating (0 to 100 scale, 0 is no effect, 100 is complete control): 60
[5]; 125 g ai/ha
  Plant response rating (0 to 100 scale, 0 is no effect, 100 is complete control): 60
[6]; 31 g ai/ha
  Plant response rating (0 to 100 scale, 0 is no effect, 100 is complete control): 0
[6]; 125 g ai/ha
  Plant response rating (0 to 100 scale, 0 is no effect, 100 is complete control): 40
[7]; 31 g ai/ha
  Plant response rating (0 to 100 scale, 0 is no effect, 100 is complete control): 0
[7]; 125 g ai/ha
  Plant response rating (0 to 100 scale, 0 is no effect, 100 is complete control): 30
[8]; 31 g ai/ha
  Plant response rating (0 to 100 scale, 0 is no effect, 100 is complete control): 0
[8]; 125 g ai/ha
  Plant response rating (0 to 100 scale, 0 is no effect, 100 is complete control): 60
[9]
  Plant response rating (scale of 0 to 100, 0 is no effect, 100 is complete control): 50
[10]; 31 g ai/ha
  Plant response rating (0 to 100 scale, 0 is no effect, 100 is complete control): 70
[10]; 125 g ai/ha
  Plant response rating (0 to 100 scale, 0 is no effect, 100 is complete control): 90
[11]
  Plant response rating (scale of 0 to 100, 0 is no effect, 100 is complete control): 40
[12]; 31 g ai/ha
  Plant response rating (0 to 100 scale, 0 is no effect, 100 is complete control): 0
[12]; 125 g ai/ha
  Plant response rating (0 to 100 scale, 0 is no effect, 100 is complete control): 0
[13]; 31 g ai/ha
  Plant response rating (0 to 100 scale, 0 is no effect, 100 is complete control): 70
[13]; 125 g ai/ha
  Plant response rating (0 to 100 scale, 0 is no effect, 100 is complete control): 100
[14]; 31 g ai/ha
  Plant response rating (0 to 100 scale, 0 is no effect, 100 is complete control): 10
[14]; 125 g ai/ha
  Plant response rating (0 to 100 scale, 0 is no effect, 100 is complete control): 10
[15]; 31 g ai/ha
  Plant response rating (0 to 100 scale, 0 is no effect, 100 is complete control): 0
[15]; 125 g ai/ha
  Plant response rating (0 to 100 scale, 0 is no effect, 100 is complete control): 0
[16]
  Plant response rating (scale of 0 to 100, 0 is no effect, 100 is complete control): 0
[17]; 31 g ai/ha
  Plant response rating (0 to 100 scale, 0 is no effect, 100 is complete control): 0
[17]; 125 g ai/ha
  Plant response rating (0 to 100 scale, 0 is no effect, 100 is complete control): 80
[18]; 31 g ai/ha
  Plant response rating (0 to 100 scale, 0 is no effect, 100 is complete control): 0
[18]; 125 g ai/ha
  Plant response rating (0 to 100 scale, 0 is no effect, 100 is complete control): 30
[19]; 31 g ai/ha
  Plant response rating (0 to 100 scale, 0 is no effect, 100 is complete control): 20
[19]; 125 g ai/ha
  Plant response rating (0 to 100 scale, 0 is no effect, 100 is complete control): 60
[20]; 31 g ai/ha
  Plant response rating (0 to 100 scale, 0 is no effect, 100 is complete control): 0
[20]; 125 g ai/ha
  Plant response rating (0 to 100 scale, 0 is no effect, 100 is complete control): 40
